Details: instrument: DT, stepped-field

CCCCCCCCCCCCC=CC[C@@H](O)[C@H](CO[C@@H]1O[C@H](CO)[C@@H](O)C(O)C1O)NC(=O)CC=CCCCCCCCCCCCCCCCCCCCCCC (stereo partly specified) [GlcCer(44:02)]
collision cross section (N2) ([M+H-H2O]+): 301.46 Å² | collision cross section (N2) ([M+H]+): 305.11 Å² | collision cross section (N2) ([M+Na]+): 306.31 Å²

CCCCCCCCCCCCC=CC[C@@H](O)[C@H](CO[C@@H]1O[C@H](CO)[C@@H](O)C(O)C1O)NC(=O)CC=CCC=CCCCCCCCCCCCCCCCCCCC (stereo partly specified) [GlcCer(44:03)]
collision cross section (N2) ([M+Na]+): 303.93 Å²

CCCCCCCCCCCCC=CC[C@@H](O)[C@H](CO[C@@H]1O[C@H](CO)[C@@H](O)C(O)C1O)NC(=O)CC=CCC=CCCCCCCCCCCCCCCCCCCCCCC (stereo partly specified) [GlcCer(47:03)]
collision cross section (N2) ([M+H-2H2O]+): 307.66 Å²

CCCCCCCCCCCCCCCCCCCCCCCCCCCCCCC(=O)N[C@@H](CO[C@@H]1O[C@H](CO)[C@@H](O)C(O)C1O)[C@H](O)CCCCCCCCCCCCCCC (stereo partly specified) [GlcCer(49:00)]
collision cross section (N2) ([M+Na-2H2O]+): 318.7 Å²

CCCCCCCCCC/C=C\CCCCCCCCCC(=O)O[C@H](COC(=O)CCCCCCCCCCCC)COP(=O)(O)O [PA(35:01)]
collision cross section (N2) ([M+2Na-H]+): 271.84 Å²

CCCCCCCC/C=C\CCCCCCCC(=O)O[C@H](COC(=O)CCCCCCCCCCCCCCCCC)COP(=O)(O)O [PA(36:01)]
collision cross section (N2) ([M+2Na-H]+): 274.66 Å² | collision cross section (N2) ([M+Na]+): 273.4 Å²

CCCC/C=C\CCCCCCCC(=O)OC[C@H](COP(=O)(O)O)OC(=O)CCCCCCCCC/C=C\CCCCCCCCCC [PA(36:02)]
collision cross section (N2) ([M+2Na-H]+): 273.1 Å² | collision cross section (N2) ([M+Na]+): 272.25 Å²

CCCCC/C=C\C/C=C\C/C=C\C/C=C\CCCC(=O)O[C@H](COC(=O)CCCCCCCCCCCCCCC)COP(=O)(O)O [PA(36:04)]
collision cross section (N2) ([M+2Na-H]+): 270.03 Å² | collision cross section (N2) ([M+Na]+): 268.39 Å²

CCCCC/C=C\C/C=C\CCCCCCCCCC(=O)O[C@H](COC(=O)CCCCCCC/C=C\C/C=C\CCCCC)COP(=O)(O)O [PA(38:04)]
collision cross section (N2) ([M+2Na-H]+): 276.1 Å² | collision cross section (N2) ([M+Na]+): 276.54 Å²

CCCCCC/C=C/CCCCCCCCCC(=O)O[C@H](COC(=O)CCCCCCCCCCCCCCC)COP(=O)([O-])OCC[N+](C)(C)C [PC(34:01)]
collision cross section (N2) ([M+2Na-H]+): 283.9 Å² | collision cross section (N2) ([M+Cl]-): 290.47 Å² | collision cross section (N2) ([M+HCOO]-): 290.79 Å² | collision cross section (N2) ([M+H]+): 281.97 Å² | collision cross section (N2) ([M+K]+): 285.76 Å² | collision cross section (N2) ([M+Na]+): 284.83 Å²

CCCCC/C=C\C/C=C\CCCCCCCCCCCC(=O)O[C@H](COC(=O)CCCCCCCCCCCC)COP(=O)([O-])OCC[N+](C)(C)C [PC(35:02)]
collision cross section (N2) ([M+Na]+): 285.81 Å²

CCCCC/C=C\C/C=C\CCCC/C=C\CCCC(=O)O[C@H](COC(=O)CCCCCCCCCCCCCCCCC)COP(=O)([O-])OCC[N+](C)(C)C [PC(38:03)]
collision cross section (N2) ([M+Cl]-): 299.51 Å² | collision cross section (N2) ([M+Na]+): 293.06 Å²

CC/C=C\C/C=C\C/C=C\C/C=C\C/C=C\CCCC(=O)O[C@H](COC(=O)CCCCCCC/C=C\CCCCCCCC)COP(=O)([O-])OCC[N+](C)(C)C [PC(38:06)]
collision cross section (N2) ([M+Cl]-): 296.13 Å² | collision cross section (N2) ([M+HCOO]-): 295.99 Å²

CC/C=C/C=C\C=C/C=C\C=C/C=C\CCCCCCCC(=O)O[C@H](COC(=O)CCCCCCCCCCCCCCCCC)COP(=O)([O-])OCC[N+](C)(C)C [PC(40:06)]
collision cross section (N2) ([M+Na]+): 294.42 Å²

CCCCCCCC/C=C\CCCCCCCCCC(=O)O[C@H](COC(=O)CCCCCCCCCCC)COP(=O)(O)OCCN [PE(32:01)]
collision cross section (N2) ([M+2Na-H]+): 268.9 Å² | collision cross section (N2) ([M+Na]+): 268.62 Å²

CCCCCC/C=C\CCCCCCCCCC(=O)O[C@H](COC(=O)CCCCCCCCCCCCCCC)COP(=O)(O)OCCN [PE(34:01)]
collision cross section (N2) ([M+2Na-H]+): 275.64 Å² | collision cross section (N2) ([M+H]+): 270.06 Å² | collision cross section (N2) ([M+K]+): 277.57 Å² | collision cross section (N2) ([M+Na]+): 276.03 Å² | collision cross section (N2) ([M-H]-): 266.91 Å²

CCCCC/C=C\C/C=C\CCCCCCCCCCCC(=O)O[C@H](COC(=O)CCCCCCCCCCC)COP(=O)(O)OCCN [PE(34:02)]
collision cross section (N2) ([M+2Na-H]+): 273.28 Å² | collision cross section (N2) ([M+H]+): 268.45 Å² | collision cross section (N2) ([M+K]+): 274.83 Å² | collision cross section (N2) ([M+Na]+): 273.06 Å² | collision cross section (N2) ([M-H]-): 265.55 Å²

CCCCCCC/C=C\CCCCCCCC(=O)O[C@H](COC(=O)CCCCCCC/C=C\CCCCCCCC)COP(=O)(O)OCCN [PE(35:02)]
collision cross section (N2) ([M+K]+): 277.37 Å² | collision cross section (N2) ([M+Na]+): 275.61 Å²

CCCCCCCCCCCCCCCCCCCCC(=O)OC[C@H](COP(=O)(O)OCCN)OC(=O)CCCCCCCCCCCCCC [PE(36:00)]
collision cross section (N2) ([M-H]-): 274.96 Å²

CCCCCC/C=C\CCCCCCCC(=O)OC[C@H](COP(=O)(O)OCCN)OC(=O)CCCCCCCCC/C=C\CCCCCCCC [PE(36:02)]
collision cross section (N2) ([M+2Na-H]+): 281.26 Å² | collision cross section (N2) ([M+H]+): 275.13 Å² | collision cross section (N2) ([M+K]+): 280.72 Å² | collision cross section (N2) ([M+Na]+): 279.88 Å² | collision cross section (N2) ([M-H]-): 272.07 Å²

CC/C=C\C/C=C\C/C=C\C/C=C\CCCCC(=O)O[C@H](COC(=O)CCCCCCC/C=C\CCCCCCCC)COP(=O)(O)OCCN [PE(36:05)]
collision cross section (N2) ([M+K]+): 274.4 Å²

CCCCC/C=C\C/C=C\CCCCCCCC(=O)OC[C@H](COP(=O)(O)OCCN)OC(=O)CCCCCCC/C=C\CCCCCCCCC [PE(37:03)]
collision cross section (N2) ([M+2Na-H]+): 282.12 Å² | collision cross section (N2) ([M+Na]+): 280.15 Å²

CCCCCCCC/C=C\CCCCCCCCCCCC(=O)O[C@H](COC(=O)CCCCCCCCCCCCCCC)COP(=O)(O)OCCN [PE(38:01)]
collision cross section (N2) ([M+Na]+): 285.93 Å²

CCCCC/C=C\C/C=C\CCCCCCCCCC(=O)O[C@H](COC(=O)CCCCCCC/C=C\CCCCCCCC)COP(=O)(O)OCCN [PE(38:03)]
collision cross section (N2) ([M+2Na-H]+): 286.46 Å² | collision cross section (N2) ([M-H]-): 277.01 Å²

CC/C=C\C/C=C\C/C=C\C/C=C\CCCCC(=O)OC[C@H](COP(=O)(O)OCCN)OC(=O)CCCCCCCCC/C=C\C/C=C\CCCCC [PE(38:06)]
collision cross section (N2) ([M+2Na-H]+): 281 Å² | collision cross section (N2) ([M-H]-): 273.81 Å²

CCCCC/C=C\C/C=C\CCCCCCCC(=O)OC[C@H](COP(=O)(O)OCCN)OC(=O)CCCCCCCCCCCCCCCCCCCC [PE(39:02)]
collision cross section (N2) ([M+2Na-H]+): 291.84 Å²

CCCCC/C=C\C/C=C\C/C=C\C/C=C\CCCCCC(=O)O[C@H](COC(=O)CCCC/C=C\C/C=C\C/C=C\CCCCC)COP(=O)(O)OCCN [PE(40:07)]
collision cross section (N2) ([M+2Na-H]+): 286.07 Å²

CC/C=C\C/C=C\C/C=C\C/C=C\C/C=C\C/C=C\CCC(=O)O[C@H](COC(=O)CCCCCCCCC/C=C\CCCCCCCC)COP(=O)(O)OCCN [PE(42:07)]
collision cross section (N2) ([M+K]+): 291.12 Å²

CCCCC/C=C\C/C=C\C/C=C\CCCCC(=O)O[C@H](COCCCCCCCCCCCCCCCC)COP(=O)(O)OCCN [PE(o34:03)]
collision cross section (N2) ([M+2Na-H]+): 271.58 Å² | collision cross section (N2) ([M+Na]+): 270.85 Å²

CCCCC/C=C\C/C=C\CCCCCCCC(=O)O[C@H](COCCCCCCCCCCCCCCCCCCCC)COP(=O)(O)OCCN [PE(o38:02)]
collision cross section (N2) ([M+2Na-H]+): 289.33 Å²

CCCCC/C=C\C/C=C\C/C=C\CCCCC(=O)O[C@H](COCCCCCCCCCCCCCCCCCCCC)COP(=O)(O)OCCN [PE(o38:03)]
collision cross section (N2) ([M+2Na-H]+): 287.42 Å² | collision cross section (N2) ([M+Na]+): 283.24 Å²

CCCCC/C=C\C/C=C\C/C=C\C/C=C\CCCC(=O)O[C@H](COCCCCCCCCCCCCCCCCCC)COP(=O)(O)OCCN [PE(o38:04)]
collision cross section (N2) ([M+2Na-H]+): 284.68 Å²

CCCCCCCCCC/C=C\CCCCCCCCCC(=O)O[C@H](COC(=O)CCCCCCCCCCC)COP(=O)(O)OC[C@H](N)C(=O)O [PS(34:01)]
collision cross section (N2) ([M+2Na-H]+): 280.81 Å²

CCCCCCCCCCCCCCCCCC(=O)OC[C@H](COP(=O)(O)OC[C@H](N)C(=O)O)OC(=O)CCCCCCCCCCCCCCCCC [PS(36:00)]
collision cross section (N2) ([M-H]-): 284.03 Å²

CCCCCCCCCC/C=C\CCCCCCCCCC(=O)O[C@H](COC(=O)CCCCCCCCCCCCCC)COP(=O)(O)OC[C@H](N)C(=O)O [PS(37:01)]
collision cross section (N2) ([M+2Na-H]+): 293.47 Å²

CCCCC/C=C\C/C=C\CCCCCCCCCCCC(=O)O[C@H](COC(=O)CCCCCCCCCCCCCC)COP(=O)(O)OC[C@H](N)C(=O)O [PS(37:02)]
collision cross section (N2) ([M+2Na-H]+): 289.29 Å²

CCCCC/C=C\C/C=C\C/C=C\CCCCCCC(=O)O[C@H](COC(=O)CCCCCCC/C=C\CCCCCCC)COP(=O)(O)OC[C@H](N)C(=O)O [PS(37:04)]
collision cross section (N2) ([M+2Na-H]+): 285.85 Å²

CCCCC/C=C\C/C=C\C/C=C\CCCCCCC(=O)O[C@H](COC(=O)CCCCCCC/C=C\CCCCCCCC)COP(=O)(O)OC[C@H](N)C(=O)O [PS(38:04)]
collision cross section (N2) ([M+2Na-H]+): 288.75 Å² | collision cross section (N2) ([M+H]+): 284.44 Å² | collision cross section (N2) ([M+K]+): 289.37 Å² | collision cross section (N2) ([M-H]-): 285.11 Å²

CCCCC/C=C\C/C=C\C/C=C\CCCCCCC(=O)O[C@H](COC(=O)CCCCCCC/C=C\C/C=C\CCCCC)COP(=O)(O)OC[C@H](N)C(=O)O [PS(38:05)]
collision cross section (N2) ([M+2Na-H]+): 285.68 Å² | collision cross section (N2) ([M+H]+): 281.67 Å² | collision cross section (N2) ([M+K]+): 286.6 Å² | collision cross section (N2) ([M-H]-): 283.69 Å²

CC/C=C\C/C=C\C/C=C\C/C=C\C/C=C\C/C=C\CCC(=O)OC[C@H](COP(=O)(O)OC[C@H](N)C(=O)O)OC(=O)CCCCCCCCCCCCCCCCCC [PS(41:06)]
collision cross section (N2) ([M+2Na-H]+): 296.18 Å²

CCCCC/C=C\C/C=C\C/C=C\C/C=C\CCCCCC(=O)O[C@H](COC(=O)CCCCCCCCC/C=C\C/C=C\CCCCC)COP(=O)(O)OC[C@H](N)C(=O)O [PS(42:06)]
collision cross section (N2) ([M+2Na-H]+): 297.48 Å²

CCCCC/C=C\C/C=C\C/C=C\C/C=C\CCCCCC(=O)O[C@H](COC(=O)CCC/C=C\C/C=C\C/C=C\C/C=C\CCCCC)COP(=O)(O)OC[C@H](N)C(=O)O [PS(42:08)]
collision cross section (N2) ([M+2Na-H]+): 295.25 Å² | collision cross section (N2) ([M-H]-): 291.98 Å²

Reference: the C3SDB collision cross section collection
